Assay results taken from patent US11753408B2, “Compounds and method for blocking transmission of malarial parasite” (The United States of America, as represented by the …, priority 2016, dated 2023).
Like-named read-outs stand apart in the source and are kept apart here.

Assays:
[1] = system: Stage III-V gametocytes (blood stage P. falciparum parasites); assay: In vitro drug activity on gametocytes (AlamarBlue viability assay); assay type: cell-based, Plasmodium falciparum; details: P. falciparum stage III-V gametocytes, 72 h incubation, AlamarBlue; read-out: Gametocyte EC50
Method: Cell culture. Asexual parasites of P. falciparum strain 3D7 were cultured as described previously [Trager W, et al., Journal of Parasitology 2005, 91: 484-486], Stage III-V gametocytes were selected and enriched with 3-day treatment with 50 mM N-acetylglucosamine (NAG) and the following Percoll density gradient centrifugation after gametocyte production [Tanaka T Q, et al., Molecular and Biochemical Parasitology, 2011, 111: 160-163], Gametocytes of HB3 and Dd2 strains were produced and then set up for assay in a similar process. HepG2 cells (ATCC, cat. no. 77400) were cultured in 175-cm^2 tissue culture flasks with 30 ml growth medium at 37° C. in a 5% CO2 humidified atmosphere. Growth medium was made with Dulbecco's Modified Eagle Medium with 10% fetal bovine serum (FBS). Growth medium was replaced every other day and cells were passed at 75% confluence.
Compound screening experiments were performed as previously described [Tanaka T Q et al., Molecular and Biochemical Parasitology, 2013, 3188: 20-25], Briefly, 2.5 μl/well incomplete medium was dispensed into each well of 1,536-well plates using the Multidrop Combi followed by 23 nl compound transferring using the NX-TR Pintool (WAKO Scientific Solutions, San Diego, Calif.). 2.5 μl/well of gametocytes was dispensed with a seeding density of 20,000 cells/well using the Multidrop Combi. The assay plates were incubated for 72 h at 37° C. with 5% CO2. After addition of 5 μl/well of 2× AlamarBlue dye (Life Technologies, cat. no. DALI 100), the plates were incubated for 24 h at 37° C. with 5% CO2 and were read in a fluorescence detection mode (Ex=525 nm, Em=598 nm) on a ViewLux plate reader (PerkinElmer).
Stage III-V gametocytes (blood stage P. falciparum parasites) were enriched with treatment with 50 mM N-acetylglucosamine (NAG) and Percoll density gradient centrifugation as described previously^1. Briefly, 2.5 μl/well incomplete medium was dispensed into each well of 1,536-well plates using the Multidrop Combi followed by 23 nl compound transfer using the NX-TR Pintool (WAKO Scientific Solutions, San Diego, Calif.). Then, 2.5 μl/well of gametocytes was dispensed with a seeding density of 20,000 cells/well using the Multidrop Combi. The assay plates were incubated for 72 h at 37° C. with 5% CO2. After addition of 5 μl/well of 2× AlamarBlue dye (Life Technologies, cat. no. DALI 100), the plates were incubated for 24 h at 37° C. with 5% CO2 and then were read in a fluorescence detection mode (Ex=525 nm, Em=598 nm) on a ViewLux plate reader (PerkinElmer).

[2] = system: Asexual parasites of P. falciparum strain 3D7; assay: In vitro drug activity on asexual parasites (SYBR Green assay); assay type: cell-based, Plasmodium falciparum
How it was run: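 3D7 parasites at 0.5% parasitemia and 2% hematocrit were exposed to drugs (DMSO ≤0.5%) for 72 h under standard culture conditions, in duplicate. After freeze-thaw lysis, SYBR Green I lysis buffer was added for 30 min at room temperature, and fluorescence was read at 490/520 nm.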

Solubility at pH 7.4 = assay type: physicochemical
mTOR = mTOR (Homo sapiens, UniProt P42345); assay: mTOR activity (no method described); assay type: biochemical
PAMPA permeability = assay type: in vitro ADME
[3] = Microsomal stability (rat); assay type: in vitro ADME; details: rat microsomes
[4] = P. falciparum 3D7 asexual parasites, 72 h, SYBR Green

Structure (SMILES)	EC50 [1]	EC50 [2, 4]	Sol @ pH 7.4 (ug/mL) (Solubility at pH 7.4)	mTOR (mTOR)	PAMPA Permeability (PAMPA permeability)	Sol @ pH 7.4 (Solubility at pH 7.4)	EC50 [2]	Microsomal Stability (rat) T1/2 [3]
N#Cc1cccc(-n2c(=O)ccc3cnc4ccc(-c5ccc(Cl)cc5)cc4c32)c1 [Compound 1]	88.8 nM	27.9 nM						
N#Cc1cc(-n2c(=O)ccc3cnc4ccc(-c5ccc(Cl)cc5)cc4c32)ccc1N1CCOCC1 [Compound 6]	102 nM		0.02 ug/mL					
COc1ccc(C#N)cc1-n1c(=O)ccc2cnc3ccc(-c4ccc(Cl)cc4)cc3c21 [Compound 12]	126 nM	55.8 nM						
COc1ccc(C#N)cc1-n1c(=O)ccc2cnc3ccc(-c4ccc(CN(C)C)cc4)cc3c21 [Compound 14]	425 nM	113 nM						
N#Cc1cc(-n2c(=O)ccc3cnc4ccc(-c5ccc(F)cc5)cc4c32)ccc1N1CCNCC1 [Compound 15]	521 nM	730 nM						
N#Cc1cc(-n2c(=O)ccc3cnc4ccc(-c5ccc(Cl)cc5)cc4c32)ccc1N1CCNCC1 [Compound 16]	69.4 nM	23.7 nM						
CN(C)Cc1ccc(-c2ccc3ncc4ccc(=O)n(-c5ccc(S(C)(=O)=O)c(Cl)c5)c4c3c2)cc1 [Compound 63]	342 nM	147 nM						
Nc1ccc(-c2ccc3ncc4ccc(=O)n(-c5ccc(S(=O)(=O)NC6CC6)cc5)c4c3c2)cn1 [Compound 82]	167 nM	150 nM						
CCN(CC)CCNC(=O)c1ccc(-n2c(=O)ccc3cnc4ccc(-c5ccc(Cl)cc5)cc4c32)cc1 [Compound 284]				9.354 µM	281 ×10⁻⁶ cm/s	36.6 ug/mL	183 nM	7.5 min
O=C(NCCN1CCC1)c1ccc(-n2c(=O)ccc3cnc4ccc(-c5ccc(Cl)cc5)cc4c32)cc1 [Compound 285]				1.506 µM	159 ×10⁻⁶ cm/s	41.6 ug/mL	59.7 nM	>30 min
CC1CCN(CCCNC(=O)c2ccc(-n3c(=O)ccc4cnc5ccc(-c6ccc(Cl)cc6)cc5c43)cc2)CC1 [Compound 286]				11.77 µM	863 ×10⁻⁶ cm/s	35.6 ug/mL	53.7 nM	2.4 min
CCC(=O)NCCNC(=O)c1ccc(-n2c(=O)ccc3cnc4ccc(-c5ccc(Cl)cc5)cc4c32)cc1 [Compound 287]				2.083 µM	21.7 ×10⁻⁶ cm/s	<1 ug/mL	58.4 nM	4.3 min
O=C(NCC1CCOCC1)c1ccc(-n2c(=O)ccc3cnc4ccc(-c5ccc(Cl)cc5)cc4c32)cc1 [Compound 288]				1.258 µM	18.8 ×10⁻⁶ cm/s	<1 ug/mL	284 nM	1.2 min
Cc1cc(C(=O)NCCCN2CCS(=O)(=O)CC2)ccc1-n1c(=O)ccc2cnc3ccc(-c4ccc(Cl)cc4)cc3c21 [Compound 289]				9.216 µM	141 ×10⁻⁶ cm/s	<1 ug/mL	86.7 nM	1.7 min
CCN(CC)CCCNC(=O)c1ccc(-n2c(=O)ccc3cnc4ccc(-c5ccc(Cl)cc5)cc4c32)c(C)c1 [Compound 290]				4.806 µM	311 ×10⁻⁶ cm/s	63.1 ug/mL	64.4 nM	3 min
Cc1cc(C(=O)NCCN2CCCCC2)ccc1-n1c(=O)ccc2cnc3ccc(-c4ccc(Cl)cc4)cc3c21 [Compound 291]				4.975 µM	773 ×10⁻⁶ cm/s	0 ug/mL	211 nM	3.1 min
Cc1cc(C(=O)NCCN(C)c2ccccc2)ccc1-n1c(=O)ccc2cnc3ccc(-c4ccc(Cl)cc4)cc3c21 [Compound 292]				15.56 µM	3.4 ×10⁻⁶ cm/s	0 ug/mL	1140 nM	1.7 min
Cc1cc(C(=O)NCCN2CCC2)ccc1-n1c(=O)ccc2cnc3ccc(-c4ccc(Cl)cc4)cc3c21 [Compound 293]				6.103 µM	241 ×10⁻⁶ cm/s	0 ug/mL	146 nM	22.9 min
Cc1cc(C(=O)NCCN2CCCC2)ccc1-n1c(=O)ccc2cnc3ccc(-c4ccc(Cl)cc4)cc3c21 [Compound 295]				23.74 µM	639 ×10⁻⁶ cm/s	0 ug/mL	162 nM	10.6 min
Cc1cc(C(=O)NCCN2CCCC2)ccc1-n1c(=O)ccc2cnc3ccc(-c4ccc(F)cc4)cc3c21 [Compound 296]				18.6 µM	510 ×10⁻⁶ cm/s	0 ug/mL	477 nM	7.1 min
Cc1cc(C(=O)NCCCN2CCOCC2)ccc1-n1c(=O)ccc2cnc3ccc(-c4ccc(F)cc4)cc3c21 [Compound 297]				11.02 µM	936 ×10⁻⁶ cm/s	0 ug/mL	150 nM	1.6 min
CN(CCNC(=O)c1ccc(-n2c(=O)ccc3cnc4ccc(-c5ccc(Cl)cc5)cc4c32)cc1)c1ccccc1 [Compound 298]				50 µM	148 ×10⁻⁶ cm/s	0 ug/mL	950 nM	1.5 min
O=C1Cc2cc(-n3c(=O)ccc4cnc5ccc(-c6ccc(Cl)cc6)cc5c43)ccc2N1 [Compound 346]	48.4 nM	18.6 nM						
CCN1Cc2cc(-n3c(=O)ccc4cnc5ccc(-c6ccc(Cl)cc6)cc5c43)ccc2C1=O [Compound 351]	2160 nM	156 nM						
NCCc1ccc(-c2ccc3ncc4ccc(=O)n(-c5ccc6c(c5)CNC6=O)c4c3c2)cc1 [Compound 377]	384 nM		0 ug/mL					
CN(C)CC#Cc1ccc2ncc3c(c2c1)n(-c1cccc(C#N)c1)c(=O)n3C [Compound 396]				15.14 µM	208 ×10⁻⁶ cm/s	46.4 ug/mL	144 nM	>30 min
Cn1c(=O)n(-c2ccc(C(=O)O)cc2)c2c3cc(-c4ccc(Cl)cc4)ccc3ncc21 [Compound 435]				0.3646 µM	11 ×10⁻⁶ cm/s	30.8 ug/mL	3660 nM	>30 min
